“And” between values parts separate entries of the source, which are not always exact repeats. Equal values may be shown once.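 All cell lines were grown in 96-well plates and treated with compound for 48 hours. The concentration for 50% growth inhibition is given as GI50. TGI is the concentration that stops growth completely.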
What was measured:
Test in all cases: NCI tumour cell line growth inhibition, 48 h
P388 leukemia = system: P388 leukemia
DMS 273 small cell lung = system: DMS 273 small cell lung
SNB-78 CNS = system: SNB-78 CNS
SN12K1 renal = system: SN12K1 renal
M19-MEL melanoma = system: M19-MEL melanoma
P388/ADR leukemia = system: P388/ADR leukemia
DLD-1 colon = system: DLD-1 colon
XF 498 CNS = system: XF 498 CNS
KM20L2 colon = system: KM20L2 colon
LXFL 529 NSCLC = system: LXFL 529 NSCLC
RXF-631 renal = system: RXF-631 renal

| SMILES | TGI (P388 leukemia) | TGI (DMS 273 small cell lung) | TGI (SNB-78 CNS) | TGI (SN12K1 renal) | TGI (M19-MEL melanoma) | TGI (P388/ADR leukemia) | TGI (DLD-1 colon) | TGI (XF 498 CNS) | TGI (KM20L2 colon) | GI50 (DMS 273 small cell lung) | GI50 (SNB-78 CNS) | GI50 (LXFL 529 NSCLC) | TGI (LXFL 529 NSCLC) | GI50 (M19-MEL melanoma) | GI50 (RXF-631 renal) | TGI (RXF-631 renal) | GI50 (DLD-1 colon) |
| --- | --- | --- | --- | --- | --- | --- | --- | --- | --- | --- | --- | --- | --- | --- | --- | --- | --- |
| Cc1c2c(cc3c1[nH]c1ccccc13)C(c1ccc(F)cc1)=NCC2 | 1.97 µM | 2.29 µM | 9.03 µM | 2.16 µM | 5.44 µM | 5 µM | 6.45 µM | 5.67 µM | 5.52 µM | – | – | – | – | – | – | – | – |
| Cc1c(N)nc([C@H](CC(N)=O)NC[C@H](N)C(N)=O)nc1C(=O)N[C@H](C(=O)N[C@H](C)[C@@H](O)[C@H](C)C(=O)N[C@H](C(=O)NCCc1nc(-c2nc(C(=O)NCCC[S+](C)C)cs2)cs1)[C@@H](C)O)C(OC1OC(CO)C(O)C(O)C1OC1OC(CO)C(O)C(OC(N)=O)C1O)c1cnc[nH]1 (stereo partly specified) | 18.5 µM | 7.82 µM and 29 µM | 24.9 µM and > 29 µM | 21 µM | 25 µM and 29 µM | 20 µM | 23.7 µM and > 29 µM | 13.5 µM | 24.3 µM and 29 µM | 0.0709 µM | > 29 µM | > 29 µM | 23.6 µM and > 29 µM | 12.9 µM | 0.372 µM | 17.7 µM and 10.4 µM | > 29 µM |
| S=C(NCCCCCCNC(=S)Nc1c2ccccc2nc2ccccc12)Nc1c2ccccc2nc2ccccc12 | > 100 µM | > 100 µM | > 100 µM | > 25.1 µM | > 100 µM | > 100 µM | > 100 µM | > 100 µM | > 100 µM | – | – | – | – | – | – | – | – |
| COC1CCC(OS(C)(=O)=O)CO1 (stereo unspecified) | – | – | > 100 µM | – | > 100 µM | – | – | – | > 100 µM | – | – | – | > 100 µM | – | – | – | – |
| C=CCOCCCC(=O)C(=[N+]=[N-])C(=O)OC | – | – | > 100 µM | – | > 100 µM | – | > 100 µM | > 100 µM | > 100 µM | – | – | – | > 100 µM | – | – | > 100 µM | – |
| CN(C)CCNc1c([N+](=O)[O-])cc2c3c(cccc13)C(=O)N(CCN(C)C)C2=O | 2.62 µM | 2.95 µM | 7.21 µM | – | 3.28 µM | 4.9 µM | 6.02 µM | 3.92 µM | 5.87 µM | – | – | – | – | – | – | – | – |
| CCN(CC)/C(=C\Cl)Nc1ccccn1 | – | > 100 µM | > 100 µM | – | > 100 µM | – | > 100 µM | > 100 µM | > 100 µM | – | – | – | > 100 µM | – | – | > 100 µM | – |
| O=C1CCC(NC(=O)Cc2ccc(O)cc2)C(=O)N1 (stereo unspecified) | – | > 2500 µM | > 2500 µM | – | > 2500 µM | – | – | > 2500 µM | > 2500 µM | – | – | – | > 2500 µM | – | – | > 2500 µM | – |
| CC(=O)C1=C(O)C2(O)C(=O)c3c(c(C)c4ccc(C)c(O)c4c3O)CC2C(N)C1=O (stereo unspecified) | – | 5.54 µM | – | – | 11 µM | – | 11.7 µM | 5.09 µM | 14.7 µM | – | – | – | 10.2 µM | – | – | 11.2 µM | – |
